Where two headings read alike, the source gives them in different places.
How the values were obtained:
[1] = target: recombinant SARS-CoV-2 Main protease (Mpro) (Severe acute respiratory syndrome coronavirus 2 (2019-nCoV) (SARS-CoV-2), UniProt P0DTD1); assay: Cov Mpro Biochemical IC50 Assay; details: read-out: MPro IC50
[2] = tested on: SARS-CoV-2-NLuc; assay: microbe, parasite or virus in culture; type: cell-based, SARS Coronavirus 2
[3] = recombinant SARS-CoV-2 Mpro 7.5 nM, fluorogenic peptide substrate 40 μM
[4] = Severe acute respiratory syndrome coronavirus, 48 h, read-out: MPro EC50
[5] = recombinant SARS-CoV-2 Mpro, fluorogenic peptide substrate
[6] = Severe acute respiratory syndrome coronavirus, 48 h; read-out: MPro EC50

Compound	IC50 [1, 3] [nM]	EC50 ([2]; read-out: MPro EC50) [nM]	EC50 [2, 4] [nM]	IC50 [1, 5] [nM]	EC50 [2, 6] [nM]
COc1ccc(C#N)c(-c2cc3[nH]c(=O)n(-c4cncc5ccccc45)c(=O)c3s2)c1 (single isomer, unassigned) [Example 554, 2-(3-(isoquinolin-4-yl)-2,4-dioxo-1,2,3,4-tetrahydrothieno[3,2-d]pyrimidin-6-yl)-4-methoxybenzonitrile]	3.88	14.9	–	–	–
COc1ccc(Cl)c(-c2cc3[nH]c(=O)n(-c4cncc5c4OCCC5)c(=O)c3s2)c1 [Example 586]	26.2	–	54.3	–	–
Cc1cc(-c2cccc(Cl)c2-c2cc3[nH]c(=O)n(-c4cncc5ccccc45)c(=O)c3s2)cn2ncnc12 [Example 113]	–	–	< 7.31	7.31	–
N#CCCn1c(=O)n(-c2cncc(F)c2)c(=O)c2sc(-c3ccccc3C#N)cc21 [Example 864]	53.2	–	–	–	150
COc1cc(-c2cc3c(s2)c(=O)n(-c2cncc4nnn(C)c24)c(=O)n3CCC#N)c(Cl)cc1F (single isomer, unassigned) [Example 1058, 3-(6-(2-chloro-4-fluoro-5-methoxyphenyl)-3-(1-methyl-1H-[1,2,3]triazolo[4,5-c]pyridin-7-yl)-2,4-dioxo-3,4-dihydrothieno[3,2-d]pyrimidin-1(2H)-yl)propanenitrile]	2.86	5.15	–	–	–
Cc1nn(C2COC2)c(C)c1-c1cccc(Cl)c1-c1ccc2c(=O)n(-c3cncc4ccccc34)c(=O)[nH]c2c1 [Example 321]	–	–	25.1	8.28	–
O=c1[nH]c2cc(-c3c(Cl)cccc3-c3ccccc3)ccc2c(=O)n1-c1cncc2ccccc12 [Example 103]	–	–	83.4	388	–
O=c1[nH]c2cc(-c3ccccc3Cl)sc2c(=O)n1-c1cncc2cccnc12 (single isomer, unassigned) [Example 463, 6-(2-chlorophenyl)-3-(1,6-naphthyridin-8-yl)thieno[3,2-d]pyrimidine-2,4(1H,3H)-dione]	202	464	–	–	–
Cc1cnc(F)c(-n2c(=O)c3sc(-c4ccccc4Cl)cc3n(CCC#N)c2=O)c1 [Example 771]	3.68	–	–	–	6.03
COc1cc(-c2cc3[nH]c(=O)n(-c4cncc5ccc(=O)n(C)c45)c(=O)c3s2)c(Cl)cc1F [Example 712]	6.85	–	12.4	–	–
COc1cc(-c2cc3c(s2)c(=O)n(-c2cncc4ccc(C)nc24)c(=O)n3CCC#N)c(Cl)cc1F [Example 906]	4.35	–	2.41	–	–
COc1cc(-c2cc3c(s2)c(=O)n(-c2cncc4nn(CC(F)(F)F)c(C)c24)c(=O)n3CCC#N)c(Cl)cc1F [Example 918]	24.3	–	43.1	–	–
CCc1ccncc1-n1c(=O)[nH]c2cc(-c3ccccc3Cl)ccc2c1=O [Example 124]	–	–	2220	948	–
COc1cc(-c2cc3c(s2)c(=O)n(-c2cncc4c2c(C)nn4C)c(=O)n3CCC#N)c(Cl)cc1F [Example 925, 3-(6-(2-chloro-4-fluoro-5-methoxyphenyl)-3-(1,3-dimethyl-1H-pyrazolo[3,4-c]pyridin-4-yl)-2,4-dioxo-3,4-dihydrothieno[3,2-d]pyrimidin-1(2H)-yl)propanenitrile]	6.13	–	6.55	–	–
COc1cc(-c2cc3c(s2)c(=O)n(-c2c(C)ccnc2F)c(=O)n3CCC#N)c(Cl)cc1F [Example 916]	11.5	–	30.3	–	–
COc1cc(-c2cc3c(s2)c(=O)n(-c2cncc4nc(C(F)(F)F)n(C)c24)c(=O)n3CCC#N)c(C#N)cc1F [Example 859]	62.8	–	169	–	–
O=c1[nH]c2cc(-c3ccccc3Cl)sc2c(=O)n1-c1cncc2ccsc12 [Example 479, 6-(2-chlorophenyl)-3-thieno[3,2-c]pyridin-7-yl-1H-thieno[3,2-d]pyrimidine-2,4-dione]	16.7	–	20.9	–	–
N#CC1(Cn2c(=O)n(-c3cncc4cccnc34)c(=O)c3sc(-c4ccccc4Cl)cc32)CC1 [Example 711]	4.41	–	1.71	–	–
N#CCCn1c(=O)n(-c2cncc(C(F)(F)F)c2)c(=O)c2sc(-c3ccccc3C#N)cc21 [Example 890]	75	–	–	–	247

From patent US20240116946A1 (Gilead Sciences, Inc., priority 2022, published 2024)
